Tested on: Langendorff heart preparation
Assay: Coronary flow in the Langendorff heart preparation of Guinea pigs
Settings: 6 heart preparations
Protocol: Coronary flow in the Langendorff heart preparation of Guinea pigs
Guinea pigs of either sex were killed by a blow on the head. The hearts were quickly removed and perfused according to Langendorff (Langendorff, Pflugers Arch. Ges. Physiol. 190, 280 (1895)) with a Ringer solution containing 154 mMol NaCl, 5,6 mMol KCl, 1,9 mMol CaCl2, 2,4 mMol NaHCO3 and 5 mMol glucose which was gassed with oxygen. The temperature of the solution was 37° C. The test substances dissolved in propanediol (0,1%) were added to the inflowing Ringer solution by bolus injection into the inflow tract. The effect, i.e. changes of the coronary outflow, was measured with a drop counter and registered on a Hellige Multiscriptor (Hellige GmbH, Freiburg, Germany) For each compound increase in coronary outflow was measured for three different doses and each dose was tested in 6 different heart preparations.

SMILES: Cc1ccc(S(=O)(=O)c2ccc3c(c2)[C@@H](N2CCCC2=O)[C@H](O)C(C)(C)O3)cc1 (relative stereo) [Example 4, 3,4-Dihydro-2,2-dimethyl-6-(4-methylphenylsulfonyl)-trans-4-(2-oxo-1-pyrrolidinyl)-2H -benzo[b]pyran-3-ol]
- Duration of elevated coronary outflow (single dose 500 ng): 11 min

SMILES: COc1cc2c(cc1S(=O)(=O)c1ccccc1)[C@@H](N1CCCC1=O)[C@H](O)C(C)(C)O2 (relative stereo) [Example 3, 3,4-Dihydro-2,2-dimethyl7-methoxy-6-phenylsulfonyl-trans-4-(2-oxo-1-pyrrolidinyl)-2H -benzo[b]-3-ol]
- Duration of elevated coronary outflow (single dose 500 ng): 14 min

SMILES: CC1(C)Oc2ccc(S(C)(=O)=O)cc2[C@@H](N2CCCC2=O)[C@@H]1O (racemic) [(±)-2,2-Dimethyl-3,4-dihydro-6-methylsulfonyl-trans-4-(2-oxo-1-pyrrolidinyl)-2H-benzo[b]pyran-3-ol, reference compound]
- Duration of elevated coronary outflow (single dose 2000 ng): 5 min

SMILES: CC1(C)Oc2ccc(S(=O)(=O)c3ccccc3)cc2[C@@H](N2CCCC2=O)[C@@H]1O (single isomer, unassigned) [Example 5a, (+)-3,4-Dihydro-2,2-dimethyl-6-phenylsulfonyl-4-(2-oxo-1-pyrrolidinyl)-2H-benzo[b]pyran-3-ol]
- Duration of elevated coronary outflow (single dose 100 ng): 13 min

SMILES: Cc1ccccc1S(=O)(=O)c1ccc2c(c1)[C@@H](N1CCCC1=O)[C@H](O)C(C)(C)O2 (relative stereo) [Example 14, 3,4-Dihydro-2,2-dimethyl-6-(2-methylphenylsulfonyl)-trans4-(2-oxo-1-pyrrolidinyl)-2H-benzo [b]pyran-3-ol]
- Duration of elevated coronary outflow (single dose 200 ng): 13 min

SMILES: CC1(C)Oc2ccc(S(=O)(=O)c3ccccc3)cc2[C@@H](N2CCCC2=O)[C@@H]1O (relative stereo) [Example 5, 3,4-Dihydro-2,2-dimethyl-6-phenylsulfonyl-trans-4-(2-oxo1-pyrrolidinyl)-2H-benzo[b]pyran-3-ol]
- Duration of elevated coronary outflow (single dose 400 ng): 11 min

SMILES: CC1(C)Oc2ccc(C#N)cc2[C@@H](N2CCCC2=O)[C@@H]1O (racemic) [(±)-6-Cyano-3,4-dihydro-2,2-dimethyl-trans-4-(2-oxo-1-pyrrolidinyl)-2H-benzo[b]pyran-3-ol, reference compound]
- Duration of elevated coronary outflow (single dose 500 ng): 6 min

SMILES: COc1cc2c(cc1S(=O)(=O)c1ccccc1)[C@@H](N1CCCC1=O)[C@H](O)C(C)(C)O2 [Example 3a, (+)-3,4-dihydro-2,2-dimethyl-7-methoxy-6-phenylsulfonyl-trans-4-(2-oxo-1-pyrrolidinyl)-2H-benzo[b]pyran-3-ol]
- Duration of elevated coronary outflow (single dose 500 ng): 11 min

Reference: patent publication US4999371A, “Substituted 3,4-dihydro-2H-benzopyrans, processes for their preparation, their use and pharmaceutical products based on these compounds” (Hoechst Aktiengesellschaft, priority 1987, dated 1991)
